Measurements: US11672792B2, “Topical formulations comprising montelukast and combinations with mussel adhesive proteins” (ENLITISA (SHANGHAI) PHARMACEUTICAL CO., LTD, priority 2017, dated 2023)

Test system: carrageenan-induced acute inflammation in subcutaneous air pouch
Experiment: Air Pouch Model II (Example 2)
Assay type: in vivo, mice
Method: In Table 6, “Dex” is an abbreviation for dexamethasone and “Dopamine” is a 4 mg/mL aqueous solution of dopamine hydrochloride (Shanghai Aladdin Bio-Chem Technology Co., Ltd., Shanghai, China).
The histological specimens were analysed and an inflammation score, an activity score and a fibroplastic proliferation score were estimated as in Example 1 above and are tabulated in Table 9 below.

[1] = Dex 400 μg, Dopamine 2 mg, MAP 250 μg, Mon 100 μg
[2] = doses/mouse: Dex 400 μg, Dopamine 2 mg, MAP 250 μg, Mon 100 μg

Cl.NCCc1ccc(O)c(O)c1 [Dopamine, dopamine hydrochloride]
Activity score [1]: 1.67 | Edema Score [1]: 2.33 | Fibroplastic proliferation score [1]: 0.00 | IFN-γ in exudate (ELISA) [1]: 5153.02 ± 5773.45 | IL-6 in exudate (ELISA) [1]: 1740.11 ± 765.02 | Inflammation score [1]: 2.00 | Leukocyte count in exudate [1]: 1.91e+06 mL⁻¹ | Lymphocyte count in exudate [1]: 50000 mL⁻¹ | Monocyte count in exudate [1]: 1.58e+06 mL⁻¹ | Neutrophil count in exudate [1]: 190000 mL⁻¹ | Sum (of histology scores) [1]: 6.00 | Exudate volume [2]: 2.93 ± 0.06 mL | Pouch Wall Weight [2]: 0.44 ± 0.07 g | pouch wall fibrous tissue proliferation (in words) (histology): no fibrous tissue proliferation | pouch wall inflammatory / lymph cell infiltration (in words) (histology): a lot of | pouch wall interstitial edema (in words) (histology): mild to moderate
